{
  "source": "patent US20060167115A1",
  "about": "“Compositions for the preservation of timber” (priority 2003, published 2006)",
  "key": {"wood decay": {"test_system": "wood decay", "assay": "Wood decay field stake test (modified AWPA E7-01), ground contact", "details": "TBBA added to ethanol, over all concentrations; groups of 10 stakes; seven months in ground", "protocol": "The preservative value of TBBA in terms of preventing wood decay was examined by ground contact exposure of TBBA treated stakes at a test plot in Gainesville, Fla. The test detail was essentially based on the “STANDARD METHOD OF EVALUATING WOOD PRESERVATIVES BY FIELD TESTS WITH STAKES”, Standard E7-01, promulgated by the American Wood Preservers Association (AWPA).\nAll the test stakes were of southern pine sapwood and were vacuum impregnated with TBBA. The TBBA was dissolved in one of four solutions: ethanol, P9 type A oil, and in two micro-emulsions: • emulsion #1: TBBA 20.81%, Butyl Lactate 31.02%, NP-15 22.33% and water 25.83% • emulsion #2: TBBA 20.05%, Butyl Lactate 29.88%, NP-15 21.51% and water 28.55%\nEach of the emulsions was diluted so that the corresponding concentration (w/v) of TBBA in all of the solutions was: 1.72%, 3.4%, 5.1%, 6.8% and 8.5%.\nTwo groups of control stakes were also installed in the test plot. One group was vacuum impregnated with pure ethanol. The second group was untreated.\nThe groups of stakes for each treatment were installed in the test plot, left for seven months, and evaluated according to the procedure set-out in AWPA Standard E7-01. […]"}, "Coniophora puteana [1]": {"test_system": "Coniophora puteana", "assay": "Biological screening test (modified EN 113), wood block weight loss", "format": "cell-based", "details": "7 weeks exposure", "protocol": "(§1) The following fungi were employed in this test: Coniophora puteana (Brown rot fungus) and Poria placenta (Brown rot fungus). The following preservative was tested: TBBA (in ethanol carrier). Five concentrations of the preservative were used: 2%, 1%, 0.1%, 0.05% and 0.01% (w/w).\n(§2) All wood blocks employed in the examples to follow were of Scots pine sapwood (Pinus sylvestris) with a volume of 1 cm^3 (10 mm×10 mm×10 mm). Five replicate test specimens were used for each concentration of the preservative. Six virulence control specimens for each fungus were used to establish the wood decay capability of the fungi. Other test blocks were used to establish: the virulence of the test fungi; the absence of a preserving effect of the ethanol carrier; and weight changes of test blocks for reasons other than decay • Treated test specimens: 2 (fungi)×5 (preservative concentrations)×1 (preservative)×5 (replicates)=50 test blocks • Untreated test specimens (for exposure alongside treated blocks): one for each treated block=50 test blocks • Virulence control specimens: 2 (fungi)×6 (replicates)=12 test blocks • Ethanol carrier test specimens: 2 (fungi)×5 (replicates)=10 test blocks • Treated check test specimens: 1 (preservatives)×5 (concentrations)×5 (replicates)=25\n(§3) All timber specimens, where applicable, were treated with preservative (vacuum impregnation) and sterilized (ionizing radiation) prior to test, in accordance with European Standard EN 113. The incubation period for the test (length of block exposure to the chosen basidiomycete fungi) was 48 days or just under 7 weeks.\n(§4) Weight changes for particular waterlogged specimens, when these are clearly unrepresentative of a group, are not included in the mean figures presented.\n(§5) Tables I and II show weight losses (% of initial dry weight) of TBBA treated and untreated control test specimens after 7 weeks exposure to Coniophora puteana and Poria placenta respectively.\n(§6) In the tables, “retention” refers to the quantity of preservative that enters the wood per cubic meter of treated wood. It's value is determined by weighing the block of wood before and after it is treated with preservative, taking the difference between the two weights, and dividing the difference in weight by the volume of the block."}, "Poria placenta [2]": {"test_system": "Poria placenta", "assay": "Biological screening test (modified EN 113), wood block weight loss", "format": "cell-based", "details": "7 weeks exposure", "protocol": "as §1, §2, §3, §4, §5, §6"}, "Coniophora puteana [3]": {"test_system": "Coniophora puteana", "assay": "Biological efficacy test (EN 113), agar medium", "format": "cell-based", "description": "(§7) Two fungi were used: Coniophora puteana Brown rot fungus) and Poria placenta (Brown rot fungus). The preservative used was TBBA (waterborne). Seven concentrations of the preservative was used: 3.0%, 2.0%, 1.5%, 1.0%, 0.5%, 0.05%, and 0.0% (w/w), i.e. the carrier solution in the absence of the active material. All wood blocks were of Scots pine sapwood (Pinus sylvestris) with an approximate volume of 18.75 cm^3 (50 mm×25 mm×15 mm) in accordance with European standard EN 113. • Treated test specimens: 2 (fungi)×7 (preservative concentrations)×1 (preservative)×4 (replicates)=56 test blocks • Untreated test specimens (for exposure alongside treated blocks): 2 (fungi)×7 (preservative concentrations)×1 (preservative)×4 (replicates)=56 test blocks • Untreated test specimens (virulence): 2 (fungi)×6 (replicates)=12 test blocks • Treated check test specimens: 4 (replicates)×7 (preservative concentrations)×1 (preservative)=28 test blocks\n(§8) After block impregnation, according to European standard EN 113, and conditioning were completed, all the blocks were sterilized using ionizing radiation according to the conditions set out in EN 113. The incubation period for the test (length of block exposure to the chosen basidiomycete fungi) was 16 weeks.\n(§9) It was noted that some waterlogging of certain test and control specimens had occurred. In keeping with the EN 113 format, weight changes for particular waterlogged specimens, when these are clearly unrepresentative of a group, were not included in the mean figures presented. In addition, weight losses of unrepresentative specimens generally, were not included in the mean figures presented."}, "Poria placenta [4]": {"test_system": "Poria placenta", "assay": "Biological efficacy test (EN 113), agar medium", "format": "cell-based", "description": "as §7, §8, §9"}, "[5]": {"details": "TBBA 0.01% w/w in ethanol carrier, retention 0.1 kg/m^3"}, "[6]": {"details": "TBBA 0.05% w/w in ethanol carrier, retention 0.4 kg/m^3"}, "[7]": {"details": "TBBA 0.1% w/w in ethanol carrier, retention 0.7 kg/m^3"}},
  "note": "Where “and” joins values, the source holds several entries; their conditions need not be identical. Equal values may be shown once. Entries after “also recorded” stand apart in the source; their conditions may differ.",
  "data": [
    {"smiles": "CC(C)(c1cc(Br)c(O)c(Br)c1)c1cc(Br)c(O)c(Br)c1", "note": "[TBBA, Tetrabromobisphenol A]", "values": [
      {"measurement": "Instances of Grade No. 10 (count per group)", "setting": "wood decay", "result": "8-10"},
      {"measurement": "Corrected mean loss in mass (%)", "setting": "Coniophora puteana [1]; [5]", "result": "39.71(2.2) (4) %"},
      {"measurement": "Corrected mean loss in mass (%)", "setting": "Coniophora puteana [1]; [6]", "result": "40.63 (7.59) (5) %"},
      {"measurement": "Corrected mean loss in mass (%)", "setting": "Coniophora puteana [1]; [7]", "result": "24.80 (—) (1) %"},
      {"measurement": "Corrected mean loss in mass (%)", "setting": "Coniophora puteana [1]; TBBA 1% w/w in ethanol carrier, retention 6.7 kg/m^3", "result": "2.39% and 2.39 (1.56) (5) %"},
      {"measurement": "Corrected mean loss in mass (%)", "setting": "Coniophora puteana [1]; TBBA 2% w/w in ethanol carrier, retention 14.1 kg/m^3", "result": "no weight loss; also recorded: No mass loss"},
      {"measurement": "Corrected mean loss in mass (%)", "setting": "Poria placenta [2]; [5]", "result": "0.88 (0.29) (5) %"},
      {"measurement": "Corrected mean loss in mass (%)", "setting": "Poria placenta [2]; [6]", "result": "4.84 (0.32) (5) %"},
      {"measurement": "Corrected mean loss in mass (%)", "setting": "Poria placenta [2]; [7]", "result": "26.67% and 26.67(11.04) %"},
      {"measurement": "Corrected mean loss in mass (%)", "setting": "Poria placenta [2]; TBBA 1% w/w in ethanol carrier, retention 6.9 kg/m^3", "result": "no weight loss; also recorded: No mass loss"},
      {"measurement": "Corrected mean loss in mass (%)", "setting": "Poria placenta [2]; TBBA 2% w/w in ethanol carrier, retention 14.2 kg/m^3", "result": "no weight loss"},
      {"measurement": "Corrected mean loss in mass (%)", "setting": "Coniophora puteana [3]; TBBA waterborne 0.05% w/w, retention 0.39 kg/m^3, 16 weeks", "result": "46.82 (6.31) %"},
      {"measurement": "Corrected mean loss in mass (%)", "setting": "Coniophora puteana [3]; TBBA waterborne 0.5% w/w, retention 3.78 kg/m^3, 16 weeks", "result": "34.87 (13.21) %"},
      {"measurement": "Corrected mean loss in mass (%)", "setting": "Coniophora puteana [3]; TBBA waterborne 1.0% w/w, retention 7.30 kg/m^3, 16 weeks", "result": "37.27 (—) %"},
      {"measurement": "Corrected mean loss in mass (%)", "setting": "Coniophora puteana [3]; TBBA waterborne 1.5% w/w, retention 11.12 kg/m^3, 16 weeks", "result": "−1.30 (1.16) %"},
      {"measurement": "Corrected mean loss in mass (%)", "setting": "Coniophora puteana [3]; TBBA waterborne 2.0% w/w, retention 15.24 kg/m^3, 16 weeks", "result": "−6.79 (0.34) %"},
      {"measurement": "Corrected mean loss in mass (%)", "setting": "Coniophora puteana [3]; TBBA waterborne 3.0% w/w, retention 23.65 kg/m^3, 16 weeks", "result": "−1.06 (0.69) %"},
      {"measurement": "Corrected mean loss in mass (%)", "setting": "Poria placenta [4]; TBBA waterborne 0.05% w/w, retention 0.25 kg/m^3, 16 weeks", "result": "30.94 (2.90) %"},
      {"measurement": "Corrected mean loss in mass (%)", "setting": "Poria placenta [4]; TBBA waterborne 0.5% w/w, retention 3.79 kg/m^3, 16 weeks", "result": "7.94 (19.35) %"},
      {"measurement": "Corrected mean loss in mass (%)", "setting": "Poria placenta [4]; TBBA waterborne 1.0% w/w, retention 7.71 kg/m^3, 16 weeks", "result": "6.17 (14.50) %"},
      {"measurement": "Corrected mean loss in mass (%)", "setting": "Poria placenta [4]; TBBA waterborne 1.5% w/w, retention 11.81 kg/m^3, 16 weeks", "result": "−2.19 (070) %"},
      {"measurement": "Corrected mean loss in mass (%)", "setting": "Poria placenta [4]; TBBA waterborne 2.0% w/w, retention 12.84 kg/m^3, 16 weeks", "result": "−6.21 (0.44) %"},
      {"measurement": "Corrected mean loss in mass (%)", "setting": "Poria placenta [4]; TBBA waterborne 3.0% w/w, retention 20.70 kg/m^3, 16 weeks", "result": "−1.67 (0.22) %"}
    ]}
  ]
}
